Reference: patent US9604975B2, “Indolyl-pyridone derivatives having checkpoint kinase 1 inhibitory activity” (Vernalis (R&D) Ltd., priority 2009, dated 2017)

Target: T1, CHK1 (Homo sapiens, UniProt O14757)
T1 construct: His; purchased Invitrogen
T1 sequence (O14757 1-476): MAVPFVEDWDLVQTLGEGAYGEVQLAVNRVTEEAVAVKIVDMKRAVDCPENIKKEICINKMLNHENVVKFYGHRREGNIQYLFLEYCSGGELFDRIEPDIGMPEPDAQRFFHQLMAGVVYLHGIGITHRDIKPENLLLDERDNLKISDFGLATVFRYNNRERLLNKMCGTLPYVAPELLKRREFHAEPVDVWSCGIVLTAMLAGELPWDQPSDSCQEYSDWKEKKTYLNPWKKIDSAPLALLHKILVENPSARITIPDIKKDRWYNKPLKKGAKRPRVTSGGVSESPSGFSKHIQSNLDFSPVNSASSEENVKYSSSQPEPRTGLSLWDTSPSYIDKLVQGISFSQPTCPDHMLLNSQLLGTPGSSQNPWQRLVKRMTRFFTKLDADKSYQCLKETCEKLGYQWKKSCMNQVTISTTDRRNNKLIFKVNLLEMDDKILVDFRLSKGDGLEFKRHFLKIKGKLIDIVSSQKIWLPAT
Assay: CHK1 Enzyme Assay (phosphorylation of Chktide peptide, 33P-ATP filter assay)
Type: biochemical
Details: 12.5 nM His-CHK1, 0.01 mM ATP, 40 minutes at 30° C.; read-out: CHK1 Enzyme Activity (IC50 range)
Summary of the method: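 His-CHK1 (12.5 nM) phosphorylating 14.8 μM Chktide with 0.01 mM ATP plus 33P-γ-ATP, in 50 mM Hepes-NaOH pH 7.5 with 0.1 mg/mL BSA. Incubated with inhibitor for 40 min at 30 °C. Stopped with phosphoric acid; phosphopeptide captured on filter and counted by scintillation.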

CC1CN(CCOc2ccc3[nH]c(-c4cc(NC(=O)c5cnn(Cc6ccccc6)c5)c[nH]c4=O)cc3c2)CC(C)O1 (centres unmarked) [Example 147, 1-Benzyl-1H-pyrazole-4-carboxylic acid (5-{5-[2-(2,6-dimethyl-morpholin-4-yl)-ethoxy]-1H-indol-2-yl}-6oxo-1,6-dihydro-pyridin-3-yl)-amide]
IC50: < 100 nM

O=C(Nc1c[nH]c(=O)c(-c2cc3cc(OCCCN4CCCC4=O)ccc3[nH]2)c1)c1cnn(Cc2ccccc2)c1 [Example 148, 1-Benzyl-1H-pyrazole-4-carboxylic acid (6-oxo-5-{5-[3-(2-oxo-pyrrolidin-1-yl)-propoxy]-1H-indole-2-yl}-1,6-dihydro-pyridin-3-yl)-amide]
IC50: < 100 nM

O=C(Nc1c[nH]c(=O)c(-c2cc3cc(OCCN4CCCCC4)ccc3[nH]2)c1)c1cnn(Cc2ccccc2)c1 [Example 149, 1-Benzyl-1H-pyrazole-4-carboxylic acid {6-oxo-5-[5-(2-piperidin-1-yl-ethoxy)-1H-indol-2-yl]-1,6-dihydro-pyridin-3-yl}-amide]
IC50: < 100 nM

CC(C)c1ccc(Cn2cc(C(=O)Nc3c[nH]c(=O)c(-c4cc5cc(OCCCN6CCCCC6)ccc5[nH]4)c3)cn2)cc1 [Example 150, 1-(4-Isopropylbenzyl)-1H-pyrazole-4-carboxylic acid-{6-oxo-5-[5-(3-piperidin-1-ylpropoxy)-1H-indol-2-yl]-1,6-dihydropyridin-3-yl}-amide]
IC50: < 100 nM

CC(C)(C)c1ccc(Cn2cc(C(=O)Nc3c[nH]c(=O)c(-c4cc5cc(OCCN6CCCCC6)ccc5[nH]4)c3)cn2)cc1 [Example 151, 1-(4-tert-Butylbenzyl)-1H-pyrazole-4-carboxylic acid {5-[5-(2-piperidin-1-ylethoxy)-1H-indol-2-yl)-6-oxo-1,6-dihydropyridin-3-yl}-amide]
IC50: < 100 nM

CC(C)c1ccc(Cn2cc(C(=O)Nc3c[nH]c(=O)c(-c4cc5cc(OCCN6CCCCC6)ccc5[nH]4)c3)cn2)cc1 [Example 152, 1-(4-Isopropylbenzyl)-1H-pyrazole-4-carboxylic acid {5-[5-(2-piperidin-1-ylethoxy)-1H-indol-2-yl)-6-oxo-1,6-dihydropyridin-3-yl}-amide]
IC50: < 100 nM

CC(C)(C)c1ccc(Cn2cc(C(=O)Nc3c[nH]c(=O)c(-c4cc5cc(OCCCN6CCCCC6)ccc5[nH]4)c3)cn2)cc1 [Example 153, 1-(4-tert-Butylbenzyl)-1H-pyrazole-4-carboxylic acid-{6-oxo-5-[5-(3-piperidin-1-ylpropoxy)-1H-indol-2-yl]-1,6-dihydropyridin-3-yl}-amide]
IC50: < 100 nM

CCN(CC)CCOc1ccc2[nH]c(-c3cc(NC(=O)c4cnn(Cc5ccc(C(C)(C)C)cc5)c4)c[nH]c3=O)cc2c1 [Example 154]
IC50: 500 to 1500 nM

CCN(CC)CCOc1ccc2[nH]c(-c3cc(NC(=O)c4cnn(Cc5ccc(C(C)C)cc5)c4)c[nH]c3=O)cc2c1 [Example 155, 1-(4-Isopropylbenzyl)-1H-pyrazole-4-carboxylic acid {5-[5-(2-diethylaminoethoxy)-1H-indol-2-yl)-6-oxo-1,6-dihydropyridin-3-yl}-amide]
IC50: < 100 nM

CN(C)CCCOc1ccc2[nH]c(-c3cc(NC(=O)c4cnn(Cc5ccc(C(C)(C)C)cc5)c4)c[nH]c3=O)cc2c1 [Example 156, 1-(4-tert-butylbenzyl)-1H-pyrazole-4-carboxylic acid {5-[5-(3-dimethylaminopropoxy)-1H-indol-2-yl)-6-oxo-1,6-dihydropyridin-3-yl}-amide]
IC50: < 100 nM

CC(C)c1ccc(Cn2cc(C(=O)Nc3c[nH]c(=O)c(-c4cc5cc(OCCCN(C)C)ccc5[nH]4)c3)cn2)cc1 [Example 157, 1-(4-Isopropylbenzyl)-1H-pyrazole-4-carboxylic acid {5-[5-(3-dimethylaminopropoxy)-1H-indol-2-yl)-6-oxo-1,6-dihydropyridin-3-yl}-amide]
IC50: < 100 nM

NCCOc1cccc2[nH]c(-c3cc(NC(=O)c4cnn(Cc5ccccc5)c4)c[nH]c3=O)cc12 [Example 158, 1-Benzyl-1H-pyrazole-4-carboxylic acid {5-[4-(2-amino-ethoxy)-1H-indol-2-yl]-6-oxo-1,6-dihydro-pyridin-3-yl}-amide]
IC50: < 100 nM

CN(C)CCOc1cccc2[nH]c(-c3cc(NC(=O)c4cnn(Cc5ccccc5)c4)c[nH]c3=O)cc12 [Example 159, 1-Benzyl-1H-pyrazole-4-carboxylic acid {5-[4-(2-dimethylamino-ethoxy)-1H-indol-2-yl]-6-oxo-1,6-dihydro-pyridin-3-yl}-amide]
IC50: < 100 nM

C[C@@H](c1ccccc1)n1cc(C(=O)Nc2c[nH]c(=O)c(-c3cc4ccccc4[nH]3)c2)cn1 [Example 160, 1-((S)-1-Phenyl-ethyl)-1H-pyrazole-4-carboxylic acid [5-(1H-indol-2-yl)-6-oxo-1,6-dihydro-pyridin-3-yl]-amide]
IC50: 100 to 500 nM

C[C@H](c1ccccc1)n1cc(C(=O)Nc2c[nH]c(=O)c(-c3cc4ccccc4[nH]3)c2)cn1 [Example 161, 1-((R)-1-Phenyl-ethyl)-1H-pyrazole-4-carboxylic acid [5-(1H-indol-2-yl)-6-oxo-1,6-dihydro-pyridin-3-yl]-amide]
IC50: < 100 nM

C[C@@H](c1ccccc1)n1cc(C(=O)Nc2c[nH]c(=O)c(-c3cc4cc(CN5CCCCC5)ccc4[nH]3)c2)cn1 [Example 162, 1-((S)-1-Phenyl-ethyl)-1H-pyrazole-4carboxylic acid [6-oxo-5-(5-piperidin-1-ylmethyl-1H-indol-2-yl)-1,6-dihydro-pyridin-3-yl]-amide]
IC50: < 100 nM

C[C@@H]1CN(Cc2ccc3[nH]c(-c4cc(NC(=O)c5cnn([C@@H](C)c6ccccc6)c5)c[nH]c4=O)cc3c2)C[C@H](C)O1 [Example 163, 1-((S)-1-Phenyl-ethyl)-1H-pyrazole-4-carboxylic acid {5-[5-(cis-2,6-dimethyl-morpholin-4-ylmethyl)-1H-indol-2-yl]-6-oxo-1,6-dihydro-pyridin-3-yl}-amide]
IC50: < 100 nM

C[C@@H](c1ccccc1)n1cc(C(=O)Nc2c[nH]c(=O)c(-c3cc4cc(CN5CCC(F)CC5)ccc4[nH]3)c2)cn1 [Example 164, 1-((S)-1-Phenyl-ethyl)-1H-pyrazole-4-carboxylic acid {5-[5-(4-fluoro-piperidin-1-ylmethyl)-1H-indol-2-yl]-6-oxo-1,6-dihydro-pyridin-3-yl}-amide]
IC50: < 100 nM

CC1CCN(Cc2ccc3[nH]c(-c4cc(NC(=O)c5cnn([C@@H](C)c6ccccc6)c5)c[nH]c4=O)cc3c2)CC1 [Example 165, 1-((S)-1-Phenyl-ethyl)-1H-pyrazole-4-carboxylic acid {5-[5-(4-methyl-piperidin-1-ylmethyl)-1H-indol-2-yl]-6-oxo-1,6-dihydro-pyridin-3-yl}-amide]
IC50: < 100 nM

CC1CCN(Cc2ccc3[nH]c(-c4cc(NC(=O)c5cnn([C@H](C)c6ccccc6)c5)c[nH]c4=O)cc3c2)CC1 [Example 167, 1-((R)-1-Phenyl-ethyl)-1H-pyrazole-4-carboxylic acid {5-[5-(4-methyl-piperidin-1-ylmethyl)-1H-indol-2-yl]-6-oxo-1,6-dihydro-pyridin-3-yl}-amide]
IC50: < 100 nM

C[C@H](c1ccccc1)n1cc(C(=O)Nc2c[nH]c(=O)c(-c3cc4cc(CN5CCCCC5)ccc4[nH]3)c2)cn1 [Example 168, 1-((R)-1-Phenyl-ethyl)-1H-pyrazole-4carboxylic acid [6-oxo-5-(5-piperidin-1-ylmethyl-1H-indol-2-yl)-1,6-dihydro-pyridin-3-yl]-amide]
IC50: < 100 nM

C[C@H](c1ccccc1)n1cc(C(=O)Nc2c[nH]c(=O)c(-c3cc4cc(CN5CCC(F)CC5)ccc4[nH]3)c2)cn1 [Example 169, 1-((R)-1-Phenyl-ethyl)-1H-pyrazole-4-carboxylic acid {5-[5-(4-fluoro-piperidin-1-ylmethyl)-1H-indol-2-yl]-6-oxo-1,6-dihydro-pyridin-3-yl}-amide]
IC50: < 100 nM

CN(C)CCN(C)Cc1ccc2[nH]c(-c3cc(NC(=O)c4cnn(Cc5ccccc5)c4)c[nH]c3=O)cc2c1 [Example 170, 1-Benzyl-1H-pyrazole-4-carboxylic acid [5-(5-{1(2-dimethylamino-ethyl)-methyl-aminol-methyl}-1H-indol-2-yl)-6-oxo-1,6-dihydro-pyridin-3-yl]-amide]
IC50: < 100 nM

CN(C)[C@@H]1CCN(Cc2ccc3[nH]c(-c4cc(NC(=O)c5cnn(Cc6ccccc6)c5)c[nH]c4=O)cc3c2)C1 [Example 172, 1-Benzyl-1H-pyrazole-4-carboxylic acid {5-[5-((R)-3-dimethylamino-pyrrolidin-1-ylmethyl)-1H-indol-2-yl]-6-oxo-1,6-dihydro-pyridin-3-yl}-amide]
IC50: < 100 nM

O=C(Nc1c[nH]c(=O)c(-c2cc3cc(CN4CC[C@@H](F)C4)ccc3[nH]2)c1)c1cnn(Cc2ccccc2)c1 [Example 174, 1-Benzyl-1H-pyrazole-4-carboxylic acid {5-[5-((R)-3-fluoro-pyrrolidin-1-ylmethyl)-1H-indol-2-yl]-6-oxo-1,6-dihydro-pyridin-3-yl}-amide]
IC50: < 100 nM

O=C(Nc1c[nH]c(=O)c(-c2cc3cc(CN4CC[C@H](F)C4)ccc3[nH]2)c1)c1cnn(Cc2ccccc2)c1 [Example 175, 1-Benzyl-1H-pyrazole-4-carboxylic acid {5-[5-((S)-3-fluoro-pyrrolidin-1-ylmethyl)-1H-indol-2-yl]-6-oxo-1,6-dihydro-pyridin-3-yl}-amide]
IC50: < 100 nM
